# Laboratory results reported in PMC12549899 (Nature Communications, 2025).
# Several values for one entry are separate records, joined by “and”; a condition that tells them apart may be missing. Equal entries are not always repeated. Where two headings read alike, the source gives them in different places.
# Target: T1, DrOTOP1 I565W (Danio rerio, UniProt Q7ZWK8, I565W)
# T1 construct: A previously generated codon-optimized full-length DrOTOP1[8]; (UniProt: Q7ZWK8) construct; expressed in transfected cells; host or cells: HEK-293 (CRL-1573, ATCC)
# T1 sequence (Q7ZWK8 1-586 I565W): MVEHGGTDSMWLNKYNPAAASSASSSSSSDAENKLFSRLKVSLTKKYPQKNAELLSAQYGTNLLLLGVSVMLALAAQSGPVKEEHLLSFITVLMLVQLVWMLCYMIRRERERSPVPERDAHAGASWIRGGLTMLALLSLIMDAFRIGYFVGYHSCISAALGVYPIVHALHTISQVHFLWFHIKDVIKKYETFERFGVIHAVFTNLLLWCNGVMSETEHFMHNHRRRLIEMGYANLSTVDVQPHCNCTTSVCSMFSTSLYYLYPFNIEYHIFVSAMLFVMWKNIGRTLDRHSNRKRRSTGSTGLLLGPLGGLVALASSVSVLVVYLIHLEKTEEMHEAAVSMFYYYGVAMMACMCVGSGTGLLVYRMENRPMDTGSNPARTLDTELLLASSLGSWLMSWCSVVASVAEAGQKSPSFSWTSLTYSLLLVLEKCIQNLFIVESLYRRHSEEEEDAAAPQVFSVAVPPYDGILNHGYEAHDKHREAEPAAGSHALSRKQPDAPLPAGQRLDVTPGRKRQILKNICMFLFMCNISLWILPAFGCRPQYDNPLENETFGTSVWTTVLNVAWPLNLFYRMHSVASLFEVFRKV
# Experiment: Whole-cell patch-clamp, inhibition of acid-evoked currents, DrOTOP1 I565W (C-domain pocket)
# Format: cell-based, zebrafish (Danio rerio)
# Parameters: key to inhibition of acid-evoked current, single cells: % inhibition = ((I2peak - I1)/I2peak)*100
# Conditions: for LogAbsoluteIC50: concentration in uM
# From the text: To experimentally verify whether C11 and C2.2 bind in the C-domain pocket as predicted, we used their docked poses to guide mutagenesis. The predicted interactions for C11 and C2.2 include π-stacking with F342 and Y422, potential H-bonding with Q542, N568, and R572 (Fig. 2J, K and Supplementary Fig. 5A), and hydrophobic packing. We generated single-residue mutants of these and other residues in DrOTOP1 that were expected to disrupt specific molecular interactions or to introduce a bulky tryptophan residue (W) to produce steric hindrance.
# HEK-293 cells (CRL-1573, ATCC) were cultured in DMEM (Thermofisher 11995073) containing 10% fetal bovine serum (Life Technology 16000044) and Penicillin-Streptomycin (100 I.U./mL) and (100 µg/mL), respectively. Cells were transfected with WT DrOTOP1 or mutant DrOTOP1 channels in 35 mm petri dishes, with ~ 500 ng DNA and 2 μL TransIT-LT1 transfection reagent (Mirus Bio Corporation, Cat # MIR2300) following the manufacturer’s protocol. All constructs were subcloned into a pcDNA3.1 vector that adds an N-terminal fusion tag consisting of an octahistidine tag followed by eGFP, a Gly-Thr-Gly-Thr linker and a 3C protease cleavage site ([…]) followed by WT DrOTOP1, WT mOTOP1, WT hOTOP1, or mutated DrOTOP1. Point mutations were generated via In-Fusion Cloning (Takara) using single-stranded DNA primers generated through IDT and sequence confirmed by Sanger sequencing (GeneWiz).
# Whole-cell patch-clamp recording was performed as previously described[6],[22],[25]. Recordings were made with an Axopatch 200B amplifier, digitized with a Digidata 1322a 16-bit data acquisition system, acquired with pClamp 8.2 and analyzed with Clampfit 10 (Molecular Devices). Recordings were sampled at 5 kHz and filtered at 1 kHz. Patch Pipettes with resistance of […] were fabricated from borosilicate glass, and only recordings with a giga-Ohm seal were used in analysis. Membrane potential was held at −80 mV for the duration of recordings. At the beginning of recordings and between, cells were washed with Tyrode’s solution (see below). Once a giga-Ohm seal was reached, cells were lifted and placed in front of microcapillary tubes controlled by a Fast-Step perfusion system (Warner Instruments) so that extracellular solutions could be rapidly exchanged during each experiment.
# Standard Tyrode’s solution consisted of 145 mM NaCl, 5 mM KCl, MgCl2, 2 mM CaCl2, 20 mM D-Glucose, and 10 mM HEPES (for pH 7.4). All other extracellular patch-clamp solutions contained 160 mM NMDG-Cl, 2 mM CaCl2, and the following buffers: 10 mM HEPES (for pH 7.4), 10 mM MES (for pH 6.5-5.5), 10 mM CHES for pH 10, and 10 mM HomoPIPES for (pH 5.0). pH adjusted with HCl. When adding compounds to extracellular solutions, the concentration of DMSO in solution was never higher than 0.3%. The pipette contained intracellular solution made up of 120 mM Cs-aspartate, 15 mM CsCl, 2 mM Mg-ATP, 5 mM EGTA, 2.4 mM CaCl2 (100 nM free Ca^2+), and 10 mM HEPES with a pH of 7.3. All extracellular solution osmolarity was adjusted to 300 mOsm and intracellular osmolarity was adjusted to 290 mOsm.
# All data are presented as mean ± SEM unless otherwise noted, and each data point represents an independent replicant. Inhibition of compounds was quantified as ((I2peak-I1)/(I2peak))*100, where I1 is the current immediately before wash-off and I2peak is the maximum recovered current (Supplementary Fig. 2). Hill coefficients were determined by the following equation: Y = Bmax*X^h/(Kd^h + X^h). Absolute IC50 was determined by the following equation: Fifty = (Top + Baseline)/2 Y = Bottom + (Top-Bottom)/(1 + ((Top-Bottom)/(Fifty-Bottom) − 1)*(AbsoluteIC50/X)^HillSlope). pH50 curves (Fig. 6G inset) were determined using the following equation: Y = Bottom + (Top-Bottom)/(1 + (EC/X)^HillSlope) where EC = EC50 control. Graphs with electrophysiological data were made in Graphpad Prism 10 (Graphpad Software Inc). […]
structure (smiles),measurement,setting,value
C=C(C)COc1ccccc1NC(=O)c1nc[nH]c1C [C2.2],Hill coefficient,,1.22
same,Shift of IC50 compared with WT,,~ 10 fold
same,"inhibition of acid-evoked current, single cells","C2.2 3 uM, Supp. Fig 5G",6.531 and 5.9632 and 6.805 and 3.704
same,inhibition at 3 µM,"C2.2 3 uM, Supp. Fig 5G, read-out: inhibition of acid-evoked current, single cells",5.54%
same,"inhibition of acid-evoked current, single cells","C2.2 10 uM, Supp. Fig 5G",8.1748 and 9.4295 and 12.133 and 10.612
same,inhibition at 10 µM,"C2.2 10 uM, Supp. Fig 5G, read-out: inhibition of acid-evoked current, single cells",8.99%
same,"inhibition of acid-evoked current, single cells","C2.2 30 uM, Supp. Fig 5G",15.885 and 20.063 and 20.497 and 20.983 and 13.0981 and 19.6998
same,inhibition at 30 µM,"C2.2 30 uM, Supp. Fig 5G, read-out: inhibition of acid-evoked current, single cells",23.3%
same,inhibition at 100 µM,"C2.2 100 uM, Supp. Fig 5G, read-out: inhibition of acid-evoked current, single cells",63.2%
same,inhibition at 300 µM,"C2.2 300 uM, Supp. Fig 5G, read-out: inhibition of acid-evoked current, single cells",78.2%
same,HillSlope,"best-fit, Supp. Fig 5G",1.217
same,IC50,"best-fit, Top 100, Bottom 0, Supp. Fig 5G, read-out: AbsoluteIC50",82.9 µM
same,LogAbsoluteIC50,"best-fit, Supp. Fig 5G",1.918
same,IC50,"pH 5.5, read-out: IC50",82 µM and 82.9 µM
"O=C(/C(=N\O)c1ccccc1)c1ccccc1 [C11, benzil monoxime]",Hill coefficient,,1.57
same,Shift of IC50 compared with WT,,~ 2.5 fold
same,"inhibition of acid-evoked current, single cells","C11 10 uM, Supp. Fig 5D",2.087 and 1.672
same,inhibition at 10 µM,"C11 10 uM, Supp. Fig 5D, read-out: inhibition of acid-evoked current, single cells",1.63%
same,"inhibition of acid-evoked current, single cells","C11 30 uM, Supp. Fig 5D",9.463 and 7.048 and 7.021
same,inhibition at 30 µM,"C11 30 uM, Supp. Fig 5D, read-out: inhibition of acid-evoked current, single cells",7.27%
same,"inhibition of acid-evoked current, single cells","C11 100 uM, Supp. Fig 5D",29.7468 and 24.8826 and 21.3974 and 29.1115
same,inhibition at 100 µM,"C11 100 uM, Supp. Fig 5D, read-out: inhibition of acid-evoked current, single cells",29.4%
same,"inhibition of acid-evoked current, single cells","C11 200 uM, Supp. Fig 5D",48.5849
same,inhibition at 200 µM,"C11 200 uM, Supp. Fig 5D, read-out: inhibition of acid-evoked current, single cells",42.1%
same,"inhibition of acid-evoked current, single cells","C11 300 uM, Supp. Fig 5D",63.41 and 66.778 and 78.1609 and 62.1622 and 62.7854 and 80.0142 and 64.4878
same,inhibition at 300 µM,"C11 300 uM, Supp. Fig 5D, read-out: inhibition of acid-evoked current, single cells",71.5%
same,HillSlope,"best-fit, Supp. Fig 5D",1.566
same,IC50,"best-fit, Top 100, Bottom 0, Supp. Fig 5D, read-out: AbsoluteIC50",190 µM
same,LogAbsoluteIC50,"best-fit, Supp. Fig 5D",2.279
same,IC50,"pH 5.5, read-out: IC50",190 µM
